Data published in PMC10878397, “Development of Potent Dual BET/HDAC Inhibitors via Pharmacophore Merging and Structure-Guided Optimization” (ACS Chemical Biology, 2024).
Like-named read-outs stand apart in the source and are kept apart here.

Assays:
panel of 32 bromodomains = experiment: DSF selectivity screen, whole panel; type: binding; details: 10 μM compound
Procedure: (§1) The effects of inhibitor binding on the apparent melting temperature of recombinant bromodomains were determined by DSF in a 96-well plate (Starlab) at a protein concentration of 2 μM with 10 μΜ compound in buffer containing 25 mM HEPES, pH 7.5, 150 mM NaCl, and 0.5 mM TCEP. […] Protein unfolding profiles were recorded using an MX3005P real-time qPCR instrument (Agilent; excitation/emission filters = 492/610 nm) while increasing the temperature from 25 to 95 °C at a heating rate of 3 °C/min. Tm values were calculated after fitting the fluorescence curves to the Boltzmann equation. Differences in melting temperature upon compound binding are given as ΔTm = Tm (protein with inhibitor) – Tm (protein with DMSO control). Measurements were performed in triplicates.

BRD4 BD1 = BRD4 BD1 (Homo sapiens, UniProt O60885); experiment: Isothermal titration calorimetry; type: binding; set-up: BRD4 BD1 (residues N44-E168) for structural studies was subcloned in the pNIC28-Bsa4 vector; His6 (followed by a TEV site) (N, cleaved yes); made in house; host or cells: Escherichia coli BL21(D3)-R3-pRARE2 Rosetta; details: for ITC -TΔS / ITC Ka / ITC n (stoichiometry) / ITC ΔG / ITC ΔH / ITC ΔS / Kd: 15 °C
Procedure: ITC measurements were performed using a Nano ITC microcalorimeter (TA Instruments, New Castle, Pennsylvania). For all experiments, reverse titration was performed (syringe containing the protein solution; cell containing the ligand) in ITC buffer containing 25 mM HEPES, pH 7.5, 150 mM NaCl, 0.5 mM TCEP, and 5% glycerol. All compounds were diluted from 50 mM DMSO stocks to 20 μΜ in ITC buffer, and BRD4-BD1 was diluted to 120 μΜ in a DMSO-adjusted ITC buffer. BRD4-BD1 (120 μΜ) was titrated into the compound solution (20 μΜ) with an initial injection (4 μL) followed by 29 identical injections (8 μL), at a rate of 0.5 μL/s and with 150 or 200 s intervals. All experiments were performed at 15 °C while stirring at 350 rpm. The heat of dilution was determined by independent titrations (protein into buffer) and subtracted from the experimental raw data. Data were processed using NanoAnalyze software (version 3.10.0) provided by the instrument manufacturer. The first injection was excluded from the analysis, and fitted curves were generated by applying the independent model (single binding site) to the raw data. Complete thermodynamic data analysis can be found in Table S2.

TRIM28 = target: T1, TRIM28 (Homo sapiens, UniProt Q13263); experiment: DSF bromodomain selectivity panel; type: binding; details: 10 μM compound, construct containing tandem PHD-BD
T1 construct: purchased in-house (SGC Frankfurt recombinant bromodomain DSF panel)
Procedure: as §1

BRD4 bromodomains = BRD4 bromodomains (Homo sapiens, UniProt O60885); experiment: NanoBRET target engagement assay, both bromodomains; type: cell-based
Procedure: The assay was performed as described previously.[17],[59] In brief, BRD4 bromodomains and full-length HDACs were obtained as plasmids cloned in-frame with a terminal NanoLuc fusion (Promega). Plasmids were transfected into HEK293T cells using FuGENE HD (Promega, E2312), and proteins were allowed to express for 20 h. Serially diluted inhibitor and the corresponding NanoBRET Tracer (Promega) at a concentration determined previously as the tracer KD, app were pipetted into white 384-well plates (Greiner #781207) for BRD assays or white 96-well plates (Corning #3600) for HDAC using an Echo acoustic dispenser (Labcyte). The corresponding protein-transfected cells were added and reseeded at a density of 2 × 10^5 cells/mL after trypsinization and resuspended in Opti-MEM without phenol red (Life Technologies). The system was allowed to equilibrate for 2 h at 37 °C/5% CO2 prior to BRET measurements. To measure BRET, NanoBRET NanoGlo substrate + Extracellular NanoLuc Inhibitor (Promega, N2540) was added as per the manufacturer’s protocol, and filtered luminescence was measured on a PHERAstar plate reader (BMG Labtech) equipped with a luminescence filter pair (450 nm BP filter (donor) and 610 nm LP filter (acceptor)). For lysed-mode NanoBRET experiments, digitonin (Promega, #G9441) was added as per the manufacturer’s instructions to a final concentration of […].

[1] = tested on: TP63 mRNA in NMC HCC2429 cells; experiment: Quantitative RT-PCR of oncogenic drivers; type: cell-based; details: HCC2429, 6 h, 1 μΜ compound
Procedure: (§2) Total RNA was extracted from cell culture using the Maxwell RSC simply RNA Cells Kit (Promega) according to the manufacturer’s protocol. cDNA was synthesized using PrimeScript Reverse Transcriptase (TakaRa) and amplified using homemade PCR master mix. The amplicon was detected by EvaGreen Dye using a LightCycler 480 instrument (Roche). PCR conditions were 5 min at 95 °C, followed by 45 cycles of 95 °C for 10 s, 59 °C for 10 s, and 72 °C for 20 s. The relative gene expression levels were normalized to GUSB and calculated using the 2^–ΔΔC^t method.

[2] = tested on: MYC mRNA in NMC HCC2429 cells; experiment: Quantitative RT-PCR of oncogenic drivers; type: cell-based; details: HCC2429, 6 h, 1 μΜ compound
Procedure: as §2

HDAC3 = HDAC3 (Homo sapiens, UniProt O15379); experiment: HDAC selectivity profile (Reaction Biology); type: biochemical; set-up: purchased Reaction Biology; details: no inhibitor control as 100%
Procedure: (§3) The reactions were performed by Reaction Biology using a protease-coupled assay with fluorogenic substrates where, after deacetylation by the HDAC and subsequent proteolytic digest, the free fluorophore 7-amino-4-methyl coumarin (AMC) can be quantified.[60] The following substrates were used for activity assays: HDACs 1, 2, 3, and 6: fluorogenic tetrapeptide from p53 residues 379–382 (RHKK(Ac) AMC); HDACs 4, 5, 7, 9, and 11: fluorogenic HDAC class2a substrate (trifluoroacetyl lysine); HDAC8: twice acetylated fluorogenic tetrapeptide from p53 residues 379–382 (RHK(Ac) K(Ac) AMC); HDAC10: Ac-spermidine-AMC. Data are given as % residual activity compared with the uninhibited control reaction.

HDAC1 = HDAC1 (Homo sapiens, UniProt Q13547); experiment: HDAC selectivity profile (Reaction Biology); type: biochemical; set-up: purchased Reaction Biology; details: no inhibitor control as 100%, read-out: % Enzyme activity HDAC1
Procedure: as §3

[3] = 95% confidence level, read-out: ITC Kd

Sequence of HDAC3 (O15379 whole entry, the tested form may be a part): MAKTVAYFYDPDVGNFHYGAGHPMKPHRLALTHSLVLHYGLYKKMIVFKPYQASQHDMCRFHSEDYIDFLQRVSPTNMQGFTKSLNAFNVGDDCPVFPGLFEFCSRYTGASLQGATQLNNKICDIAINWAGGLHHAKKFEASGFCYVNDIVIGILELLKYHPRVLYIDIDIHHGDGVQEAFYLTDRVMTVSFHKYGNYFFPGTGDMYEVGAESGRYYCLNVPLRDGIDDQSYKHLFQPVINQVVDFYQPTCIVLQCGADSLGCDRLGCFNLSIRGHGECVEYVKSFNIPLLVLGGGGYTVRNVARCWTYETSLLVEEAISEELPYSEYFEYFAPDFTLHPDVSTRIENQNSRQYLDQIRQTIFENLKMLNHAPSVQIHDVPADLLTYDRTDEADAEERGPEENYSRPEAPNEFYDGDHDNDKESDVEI
Sequence of HDAC3 (Q9Y618 395-489 partner limits assumed): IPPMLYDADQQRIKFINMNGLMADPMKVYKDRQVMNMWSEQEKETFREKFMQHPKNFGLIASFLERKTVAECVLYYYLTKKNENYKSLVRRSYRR
T1 sequence (Q13263 whole entry): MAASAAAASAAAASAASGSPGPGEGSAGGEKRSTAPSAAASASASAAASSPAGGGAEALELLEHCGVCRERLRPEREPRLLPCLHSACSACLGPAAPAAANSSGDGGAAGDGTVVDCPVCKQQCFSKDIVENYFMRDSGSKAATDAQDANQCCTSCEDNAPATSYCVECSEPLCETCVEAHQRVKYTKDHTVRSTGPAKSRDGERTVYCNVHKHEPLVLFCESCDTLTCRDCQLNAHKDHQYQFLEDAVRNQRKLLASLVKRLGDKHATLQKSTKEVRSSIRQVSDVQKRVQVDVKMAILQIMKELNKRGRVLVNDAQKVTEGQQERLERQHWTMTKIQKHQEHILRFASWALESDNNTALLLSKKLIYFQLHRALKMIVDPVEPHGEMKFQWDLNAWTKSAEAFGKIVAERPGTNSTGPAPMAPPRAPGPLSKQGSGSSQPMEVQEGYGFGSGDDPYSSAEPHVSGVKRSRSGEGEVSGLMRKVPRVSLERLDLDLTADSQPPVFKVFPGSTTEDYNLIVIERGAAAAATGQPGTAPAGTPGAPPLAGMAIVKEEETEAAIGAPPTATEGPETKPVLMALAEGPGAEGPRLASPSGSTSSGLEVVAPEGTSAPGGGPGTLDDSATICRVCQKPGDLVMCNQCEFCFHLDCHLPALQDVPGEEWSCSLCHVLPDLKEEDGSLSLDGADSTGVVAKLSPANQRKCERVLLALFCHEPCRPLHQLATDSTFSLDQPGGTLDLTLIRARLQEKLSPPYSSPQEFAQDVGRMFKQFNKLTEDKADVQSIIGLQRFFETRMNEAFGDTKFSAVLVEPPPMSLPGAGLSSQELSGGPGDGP
Sequence of HDAC1 (Q13547 whole entry): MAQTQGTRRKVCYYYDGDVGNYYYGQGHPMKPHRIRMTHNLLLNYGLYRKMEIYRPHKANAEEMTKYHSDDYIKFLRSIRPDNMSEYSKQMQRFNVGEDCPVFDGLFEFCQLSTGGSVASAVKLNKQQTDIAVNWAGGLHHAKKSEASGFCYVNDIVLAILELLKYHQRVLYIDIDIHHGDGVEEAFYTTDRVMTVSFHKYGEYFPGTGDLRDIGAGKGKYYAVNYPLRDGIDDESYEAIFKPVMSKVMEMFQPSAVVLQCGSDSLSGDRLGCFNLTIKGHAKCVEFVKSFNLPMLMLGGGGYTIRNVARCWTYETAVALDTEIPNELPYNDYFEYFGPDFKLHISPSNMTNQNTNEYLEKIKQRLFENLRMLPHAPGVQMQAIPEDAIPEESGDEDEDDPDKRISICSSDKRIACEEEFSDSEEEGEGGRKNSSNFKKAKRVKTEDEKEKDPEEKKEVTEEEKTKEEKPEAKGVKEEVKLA

fold increased binding affinity to BRD4 BD1 in ITC vs NB462 (BRD4 BD1) [fold]	Kd (BRD4 BD1; read-out: ITC Kd BRD4 BD1) [nM]	SMILES	bromodomain selectivity in DSF screen (panel of 32 bromodomains)	ITC -TΔS (BRD4 BD1) [kcal/mol]	ITC Ka (BRD4 BD1) [Mˉ¹]	ITC n (stoichiometry) (BRD4 BD1)	ITC ΔG (BRD4 BD1) [kcal/mol]	ITC ΔH (BRD4 BD1) [kcal/mol]	ITC ΔS (BRD4 BD1) [cal/mol·K]	Kd (BRD4 BD1; [3]) [nM]	Mean Tm TRIM28 (TRIM28) [K]	EC50 (BRD4 bromodomains; BD1 and BD2, intact cells, read-out: NanoBRET EC50 BRD4 bromodomains) [nM]	TP63 mRNA levels [1]	MYC mRNA levels [2]	remaining activity at 1 µM (HDAC3; 1 µM NB512, read-out: % Enzyme activity HDAC3) [%]	% Enzyme activity HDAC3 (HDAC3; 10 µM NB512) [%]	remaining activity at 10 µM (HDAC3; 10 µM NB512, read-out: % Enzyme activity HDAC3) [%]	remaining activity at 1 µM (HDAC1; 1 µM NB512) [%]	remaining activity at 10 µM (HDAC1; 10 µM NB512) [%]	EC50 (BRD4 bromodomains; intact and permeabilized cells, read-out: NanoBRET EC50 both BRD4 bromodomains) [nM]
–	–	Cn1cc(-c2ccc(C(=O)Nc3ccccc3N)cc2)c2cc[nH]c2c1=O [NB462]	BRD7 and BRD9 as prominent off-targets	1.371	6.58E+06	0.996 ± 0.029	-8.99	-10.36 ± 0.501	-4.759	152	0.6 ± 0.4	100 to 400	–	–	–	–	–	–	–	–
3	46	Cn1cc(-c2ccc(C(=O)Nc3ccccc3N)nc2)c2cc[nH]c2c1=O [NB500]	–	-1.832	2.18E+07	1.003 ± 0.022	-9.676	-7.844 ± 0.360	6.358	45.8	–	–	strongest effect	strongest effect	–	–	–	–	–	–
–	–	Cn1cc(-c2ccc(C(=O)Nc3cc(-c4ccccc4)ccc3N)cc2)c2cc[nH]c2c1=O [NB503]	high selectivity for BET bromodomains	–	–	–	–	–	–	–	0.0 ± 0.2	–	strongest effect	strongest effect	–	–	–	–	–	–
–	–	Cn1cc(-c2ccc(C(=O)Nc3cc(-c4ccccc4)ccc3N)nc2)c2cc[nH]c2c1=O [NB512]	–	–	–	–	–	–	–	–	–	–	–	–	95.5	76	76.4	20.6	10.3	100 to 400
